Assay results as given in patent US8093231B2, “Sulfonylethyl phosphorodiamidates” (Telik, Inc., priority 2004, dated 2012).
Where a name gives a salt, the structure may show the parent alone. Read-outs that look alike come from different tables or passages of the source.

Columns and labels:
[1] = system: P388 murine leukemia cell line; assay: Cross-resistance assay; assay type: cell-based; conditions: P388 vs doxorubicin-resistant derivative; cross-resistant if resistance ratio approximately 2 or higher
From the text: (§1) The human cancer cell lines DLD-1 (colorectal adenocarcinoma), LNCap (prostate carcinoma), and OVCAR-3 (ovarian carcinoma) were obtained from the American Type Culture Collection, Manassas, Va., U.S.A., and HL-60 (promyeloid myelocytic leukemia), MX-1 (breast carcinoma), P388, and P388ADR from the National Cancer Institute, Bethesda, Md., U.S.A. Carboplatin, doxorubicin, and melphalan were obtained from Sigma-Aldrich Chemical Company, St. Louis, Mo., U.S.A. The CellTiter-Glo assay kit was obtained from Promega Corporation, Madison, Wis., U.S.A., and the Cellular DNA Cytometric Analysis Reagent Kit from Roche Diagnostics Corporation, Indianapolis, Ind., U.S.A. Lambda DNA was obtained from New England Biolabs, Beverly, Mass., U.S.A., and SYBR-Gold from Molecular Probes, Inc., Eugene, Oreg., U.S.A. The DNeasy Tissue Kit was obtained from Qiagen Inc., Valencia, Calif., U.S.A., and AmpliTaq Gold DNA polymerase and PCR reagents from Applied Biosystems, Foster City, Calif., U.S.A. All products were used in accordance with manufacturer's directions. All assays were conducted in triplicate wells, with dimethyl sulfoxide (DMSO) solvent control. The extent of cell growth was expressed as a percentage of the signal from the solvent control wells.

[2] = system: MX-1 (human breast cancer) tumor; assay: MX-1 xenograft assay, intraperitoneal administration; assay type: in vivo, athymic nu/nu mice; conditions: for tumor inhibition / dose dependence of tumor inhibition: intraperitoneal; for dose dependence of tumor inhibition: range of doses and treatment times
Method: (§2) Female athymic nu/nu mice (Harlan, Indianapolis, Ind., U.S.A. or similar vendor), 6-8 weeks old (approximately 20 g), were implanted in the mammary fat pad of the right fore flank with 20-30 mg pieces of MX-1 (human breast cancer) tumor harvested from similar mice that had previously been implanted with the MX-1 tumor. Approximately 7-10 days after tumor transplantation, when the tumor weight was approximately 50-200 mg, the mice were assigned to treatment groups. […] All compounds were active in this assay, with tumor growth inhibition compared to vehicle between 5% (compound 171A) and 99% (compound 13A), with most compounds causing at least 30% tumor growth inhibition. […] Compound 13A was tested at 25, 50, or 100 mg/Kg for 5 or 9 days, causing tumor inhibition between 19% (25 mg/Kg for 5 days) and 99% (100 mg/Kg for 9 days). Compound 70A was tested at 50, 100, and 150 mg/Kg for 5 or 12 days, causing tumor inhibition between 16% (50 mg/Kg for 5 days) and 95% (150 mg/Kg for 12 days).

[3] = system: MiaPaCa-2 (human pancreatic cancer) tumor; assay: MiaPaCa-2 xenograft assay, intraperitoneal administration; assay type: in vivo, athymic nu/nu mice; conditions: 100 mg/Kg intraperitoneal once/day for 14 days; for inhibition of tumor growth compared to vehicle: measured 15 days after start
Method: Male athymic nu/nu mice, 6-8 weeks old (approximately 20 g), were implanted subcutaneously in the right fore flank with 20-30 mg pieces of MiaPaCa-2 (human pancreatic cancer) tumor harvested from similar mice that had previously been implanted with the MiaPaCa-2 tumor. Approximately 7-10 days after tumor transplantation, when the tumor weight was approximately 50-200 mg, the mice were assigned to treatment groups. Groups of mice were treated with compound 13A or 70A at 100 mg/Kg by intraperitoneal injection once/day for 14 days, with vehicle control. Tumor growth inhibition was measured 15 days after the start of treatment.

[4] = system: DLD-1 (colorectal adenocarcinoma); assay: Cytotoxicity/growth inhibition assay, DLD-1; assay type: cell-based, human; conditions: Homo sapiens, DLD-1, 96 h, read-out: IC50 (DLD-1)
Method in brief: (§3)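 Test compounds in DMSO (0.1–200 μM; final DMSO 0.5%) added to freshly diluted cells (3×10^3 cells/mL MX-1 and DLD-1, 6×10^3 cells/mL LNCap), triplicate wells. Cultured ~three doubling times (3 days MX-1, 4 days DLD-1/LNCap). CellTiter-Glo luminescence, 15 min room temperature; growth expressed as % of DMSO solvent control.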

[5] = system: MX-1 (human breast cancer) tumor; assay: MX-1 xenograft assay, oral administration; assay type: in vivo, athymic nu/nu mice; conditions: for inhibition of tumor growth compared to vehicle / dose dependence of tumor inhibition, oral: measured 13 days after start; for activity in MX-1 xenograft assay, oral / dose dependence of tumor inhibition, oral: gavage once/day for 5 days
Method: as §2
A study similar to that described in In vivo Example 1 was performed using oral administration of compounds 13A and 70A. Groups of mice were treated with compound 13A at 50, 100, or 300 mg/Kg, or compound 70A at 100, 150, 200, or 250 mg/Kg, by gavage once/day for 5 days (with vehicle control). Tumor growth inhibition was measured 13 days after the start of treatment.

[6] = system: HCT116 (human colon cancer) tumor; assay: HCT116 xenograft assay, intraperitoneal administration; assay type: in vivo, athymic nu/nu mice; conditions: for inhibition of tumor growth compared to vehicle: measured 13 days after start; for activity in HCT116 xenograft assay: intraperitoneal once/day for 11 days
Method: Male athymic nu/nu mice, 6-8 weeks old (approximately 20 g), were implanted subcutaneously in the right fore flank with 20-30 mg pieces of HCT116 (human colon cancer) tumor harvested from similar mice that had previously been implanted with the HCT116 tumor. Approximately 7-10 days after tumor transplantation, when the tumor weight was approximately 50-200 mg, the mice were assigned to treatment groups. Groups of mice were treated with compounds 5A or 13A at 100 mg/Kg, or compound 70A at 150 mg/Kg, by intraperitoneal injection once/day for 11 days, with vehicle control. Tumor growth inhibition was measured 13 days after the start of treatment.

MX-1 (breast carcinoma) = assay: Cytotoxicity/growth inhibition assay, MX-1; assay type: cell-based, human; conditions: Homo sapiens, MX1, 72 h, read-out: IC50 (MX-1)
Method in brief: as §3

[7] = system: MiaPaCa-2 (human pancreatic cancer) tumor; assay: MiaPaCa-2 xenograft assay, oral administration; assay type: in vivo, athymic nu/nu mice; conditions: 200 mg/Kg for 7 days
Lambda DNA = assay: DNA damage assay; assay type: biochemical; conditions: 100 μM and 300 μM, room temperature, one day, PCR amplification
DLD-1 cells = assay: Cell cycle analysis; assay type: cell-based, human; conditions: approximately IC75-85, one and two days, propidium iodide FACS
[8] = system: LNCap (prostate carcinoma); assay: Cytotoxicity/growth inhibition assay, LNCap; assay type: cell-based, human; conditions: Homo sapiens, LNCaP, 96 h, read-out: IC50 (LNCap)
Method in brief: as §3

[9] = system: M7609 engineered to have high, medium, and low levels of GST P1-1; conditions: murine xenografts; cited from earlier work
[10] = system: ovarian, breast, non-small cell lung, and colorectal cancers; conditions: cited from earlier work
[11] = system: M6709 human colon carcinoma cell line selected for resistance to doxorubicin; conditions: overexpresses GST P1-1; cited from earlier work
[12] = system: MCF-7 human breast carcinoma cell line selected for resistance to cyclophosphamide; conditions: overexpresses GST P1-1; cited from earlier work
OVCAR-3 cell line = assay: Synergism assay; assay type: cell-based, human
From the text: as §1

[13] = system: in vitro cell culture and tumor biopsies; conditions: cited from earlier work
[14] = 100 mg/Kg intraperitoneal once/day for 5, 9, or 14 days

Compound	cross-resistance with doxorubicin [1]	activity in MX-1 xenograft assay [2, 14]	dose dependence of tumor inhibition [2]	activity in MiaPaCa-2 xenograft assay [3]	inhibition of tumor growth compared to vehicle [3] [%]	IC50 [4] [µM]	activity in MX-1 xenograft assay, oral [5]	dose dependence of tumor inhibition, oral [5]	activity in HCT116 xenograft assay [6]	IC50 (MX-1 (breast carcinoma)) [µM]	activity in MiaPaCa-2 xenograft assay, oral [7]	inhibition of tumor growth [7] [%]	DNA damage activity (Lambda DNA)	cell cycle effect (G2/M cycle block) (DLD-1 cells)	synergism with carboplatin (OVCAR-3 cell line)	other results
N[C@@H](CS(=O)(=O)CCOP(=O)(N(CCCl)CCCl)N(CCCl)CCCl)C(=O)O [Compound 70A, 3-[[2-[[bis[bis(2-chloroethyl)amino]phosphinyl]oxy]ethyl]sulfonyl]-L-alanine]	not cross-resistant	active	dose-dependent tumor inhibition	active	38	10.7	active	dose-dependent tumor inhibition	active	36.7	active	27	only marginal DNA damage activity	induced a G2/M cycle block		tumor inhibition ([2]; 50 mg/Kg for 5 days): 16%; tumor inhibition ([2]; 150 mg/Kg for 12 days): 95%; inhibition of tumor growth compared to vehicle ([5]; 100 mg/Kg gavage once/day for 5 days): 36%; inhibition of tumor growth compared to vehicle ([5]; 250 mg/Kg gavage once/day for 5 days): 96%; inhibition of tumor growth compared to vehicle ([6]; 150 mg/Kg intraperitoneal once/day for 11 days): 26%
CNC(=O)CS(=O)(=O)CCOP(=O)(N(CCCl)CCCl)N(CCCl)CCCl [Compound 13A, N-methyl-2-[[2-[[bis[bis(2-chloroethyl)amino]phosphinyl]oxy]ethyl]sulfonyl]acetamide]		active	dose-dependent tumor inhibition	active	78	7.1	active	dose-dependent tumor inhibition	active	11.7	active	82				IC50 [8]: 53.5 µM; tumor growth inhibition compared to vehicle [2, 14]: 99%; tumor inhibition ([2]; 25 mg/Kg for 5 days): 19%; tumor inhibition ([2]; 100 mg/Kg for 9 days): 99%; inhibition of tumor growth compared to vehicle ([5]; 50 mg/Kg gavage once/day for 5 days): 63%; inhibition of tumor growth compared to vehicle ([5]; 300 mg/Kg gavage once/day for 5 days): 100%; inhibition of tumor growth compared to vehicle ([6]; 100 mg/Kg intraperitoneal once/day for 11 days): 43%
N[C@@H](CCC(=O)N[C@@H](CS(=O)(=O)CCOP(=O)(N(CCCl)CCCl)N(CCCl)CCCl)C(=O)N[C@@H](C(=O)O)c1ccccc1)C(=O)O [canfosfamide hydrochloride]																potency versus level of GST P1-1 [9]: positively correlated with the level of GST P1-1; clinical activity ([10]; colorectal and breast cancer): single agent antitumor activity; incidence of clinically significant hematological toxicity ([10]; patients treated): very low incidence; clinical activity ([10]; patients with non-small cell lung cancer and ovarian cancer): significant single agent antitumor activity and improvement in survival
N[C@@H](CCC(=O)N[C@@H](CS(=O)(=O)CCOP(=O)(N(CCCl)CCCl)N(CCCl)CCCl)C(=O)N[C@@H](C(=O)O)c1ccccc1)C(=O)O [canfosfamide, L-γ-glutamyl-3-[[2-[[bis[bis(2-chloroethyl)amino]phosphinyl]oxy]ethyl]sulfonyl]-L-alanyl-2phenyl-(2R)-glycine]													only marginal DNA damage activity	induced a G2/M cycle block	synergistic	potency in resistant line over parental cell line [11]: more potent; potency in resistant line over parental cell line [12]: more potent; cross-resistance to platinum, paclitaxel, doxorubicin and gemcitabine [13]: non-cross-resistant
O=P(OCCS(=O)(=O)Cc1ccccc1)(N(CCCl)CCCl)N(CCCl)CCCl [Compound 128A, α-[[2-[[bis[bis(2-chloroethyl)amino]phosphinyl]oxy]ethyl]sulfonyl]toluene]	not cross-resistant	active	dose-dependent tumor inhibition			3.2				4.5				induced a G2/M cycle block	synergistic	
